Experimental data from PMC12337082 (Journal of Biochemical and Molecular Toxicology, 2025).
Where two headings read alike, the source gives them in different places.

How the values were obtained:
[1] = system: MCF‐7; conditions: cited from earlier work
[2] = system: MDA‐MB‐231; conditions: MDA‐MB‐231, 24 h, cited from earlier work
[3] = system: MCF‐7, MDA‐MB‐231, and L‐929; assay: MTT cell viability assay, statements over all cell lines; assay type: cell-based; conditions: 25 µM; MCF‐7, MDA‐MB‐231 and L‐929; not dose‐dependent
Excerpt: (§1) MCF‐7, MDA‐MB‐231, and L‐929 mouse fibroblast cell lines were obtained from the American Type Culture Collection (ATCC, Manassas, Virginia, USA). MCF‐7 is a hormone‐responsive, differentiated mammary epithelium cell line with an ER+, PR+, and HER2‐ pattern (ATCC, HTB‐22). MDA‐MB‐231 is a triple‐negative differentiated mammary epithelium cell line (ATCC, HTB‐26). The L‐929 mouse fibroblast cell line is derived from the normal subcutaneous connective tissue of a mouse and is commonly used in cytotoxicity assays (ATCC, CCL‐1). All cell lines were cultured in DMEM medium (Dulbecco's Modified Eagle Medium, Gibco), supplemented with 10% fetal bovine serum (Gibco), 1% glutamine, and penicillin/streptomycin (Gibco) in a humidified atmosphere containing 5% CO2 at 37°C. Cell viability was tested using Trypan blue staining.
(§2) The MTT [3‐(4,5‐dimethylthiazol‐2‐yl)−2,5‐diphenyltetrazolium bromide] assay is a colorimetric assay for determining cell metabolic activity. In the MTT assay, the yellow dye MTT that dissolves in water is changed by mitochondrial reductase into a purple formazan that is non‐soluble. The water‐insoluble formazan produced is solubilized in a solubilization buffer, and absorbances are detected.
(§3) In 96‐well plates, the cells were cultivated at a density of 5 × 10^3 cells/well using 100 µL medium. […] 10 μL of the MTT labeling reagent (final concentration 0.5 mg/mL) were added to each well at the end of the incubation periods, and the wells were incubated for an additional 4 h. Next, each well received 100 μL of solubilization buffer (10% SDS in 0.01 M HCl) and was overnight incubated, and the absorbance of formazan products was evaluated at 550 nm using a multi‐mode microplate reader (Synergy H1, Biotech Instruments Inc., Vermont, USA). The results were normalized relative to the absorbances of calculated percent concentrations of DMSO. All tests involved three replicates with three independent experiments.
All statistical evaluations, including t‐tests and IC50 values, were calculated using the GraphPad Prism software tool (v6.0, GraphPad Software Inc., San Diego, USA). […]

[4] = system: MCF‐7; assay: MTT cell viability assay, MCF‐7; assay type: cell-based, human; conditions: for IC50: Homo sapiens, MCF7, MTT
Excerpt: as §1, §2, §3
(§4) All statistical evaluations, including t‐tests and IC50 values, were calculated using the GraphPad Prism software tool (v6.0, GraphPad Software Inc., San Diego, USA). Statistical significance was defined as p ˂ 0.05 (*p < 0.05, **p < 0.01, ***p < 0.001, ****p < 0.0001).

[5] = system: MDA‐MB‐231; assay: MTT cell viability assay, MDA‐MB‐231; assay type: cell-based, human; conditions: for IC50: Homo sapiens, MTT
Excerpt: as §1, §2, §3, §4

[6] = system: L‐929 mouse fibroblast cell line; assay: MTT cell viability assay, L‐929 control fibroblasts; assay type: cell-based; conditions: Mus musculus
Excerpt: as §1, §2, §3, §4

[7] = system: cancer cell proliferation; set-up: method as in PMID 27074576; conditions: read-out: Effective range of cytotoxicity IC50 values in inhibiting cancer cell proliferation; cited from earlier work

## CC(C)Cc1ccc(C(C)C(=O)O)cc1 (stereo not shown) [Ibuprofen]
[1]; MCF‐7, 48 h, ref Daniel Pedro‐Hernández et al. (2020) [67]
  IC50: 92.1 µM

## O=C(O)C(=O)O.[NH-][C@@H]1CCCC[C@H]1[NH-].[Pt+2] [Oxaliplatin]
[2]; ref Raymond et al. (1997) [66]
  IC50: 17.9 µM
[1]; MCF‐7, 24 h, ref Raymond et al. (1997) [66]
  IC50: 7.4 µM

## CCc1cccc2c3c([nH]c12)C(CC)(Cc1n[nH]c(=S)n1Cc1ccccc1)OCC3 (stereo not shown) [SGK 242, 5‐[(1,8‐Diethyl‐1,3,4,9‐tetrahydropyrano[3,4‐b]indole‐1‐yl)methyl]‐4‐benzyl‐2,4‐dihydro‐3H‐1,2,4‐triazole‐3‐thione]
[3]
  Toxicity on all cell lines: severe toxicity
[4]; MCF‐7, 24 h
  IC50: 22 ± 0.1 µM
[4]; MCF‐7, 48 h
  IC50: 12 ± 3.3 µM
[4]; MCF‐7 in comparison to L‐929, 24 h
  Selectivity index (SI): 1.7
[4]; MCF‐7 in comparison to L‐929, 48 h
  Selectivity index (SI): 3.6
[5]; MDA-MB-231, 24 h, MDA‐MB‐231, 24 h
  IC50: 31 ± 2.5 µM
[5]; MDA-MB-231, 48 h, MDA‐MB‐231, 48 h
  IC50: 24 ± 1.2 µM
[5]; MDA‐MB‐231 in comparison to L‐929, 24 h
  Selectivity index (SI): 1.2
[5]; MDA‐MB‐231 in comparison to L‐929, 48 h
  Selectivity index (SI): 1.8
[6]; L929, 24 h, L‐929, 24 h
  IC50: 38 ± 8.05 µM
[6]; L929, 48 h, L‐929, 48 h
  IC50: 44.2 ± 2.45 µM

## Cc1ccc(-c2cc(C(F)(F)F)nn2-c2ccc(S(N)(=O)=O)cc2)cc1 [Celecoxib]
[7]
  IC50: 25 to 100 µM
[2]; monolayer cultures, ref Huang et al. (2017) [64]
  IC50: 40.1 µM
[2]; monolayer cultures, ref Huang et al. (2017) [64], listed as celecoxib
  IC50: 89 µM
[1]; MCF‐7, 24 h, monolayer cultures, ref Huang et al. (2017) [64]
  IC50: 89 µM
[1]; MCF‐7, 24 h, monolayer cultures, ref Huang et al. (2017) [64], listed as celecoxib
  IC50: 40.1 µM
